Measurements from publication PMC9604400, “Synthesis, Anticancer and Antitubercular Properties of New Chalcones and Their Nitrogen-Containing Five-Membered Heterocyclic Hybrids Bearing Sulfonamide Moiety” (International Journal of Molecular Sciences, 2022).

How the values were obtained:
[1] = system: SK-OV-3; test: NCI-60 screen (SRB), ovarian cancer; settings: Homo sapiens
[2] = system: SK-MEL-28; test: NCI-60 screen (SRB), melanoma; settings: Homo sapiens
[3] = system: SN12C; test: NCI-60 screen (SRB), renal cancer; settings: Homo sapiens
[4] = system: NCI-H322M; test: NCI-60 screen (SRB), non-small cell lung cancer; format: cell-based; settings: Homo sapiens
Method: All compounds selected by the US National Cancer Institute (NCI) were initially tested at a single dose (10^−5 M) on the full panel of 60 cancer cell lines represented by leukemia, melanoma, lung, colon, central nervous system (CNS), ovarian, kidney, prostate and breast cancer. Only compounds that were able to satisfy the predetermined inhibition criteria against a minimum number of cell lines proceeded to five-dose assays ([…], 0.1 and 0.01 μM).
In these studies, human cancer cell lines were cultured in a RPMI-1640 medium containing 5% fetal bovine serum and 2 mM of L-glutamine. Following the protocol for a typical assay, cells were inoculated into 96-well plates and incubated at 37 °C, 5% CO2, 95% air, and 100% relative humidity for 24 h prior to the addition of the compounds to be tested. After 24 h, two plates of each cell line were fixed in situ with trichloroacetic acid (TCA) to represent a measure of the cell population for each cell line at the time of sample addition (Tz). Compounds were dissolved in DMSO to 400-fold the maximum desired concentration for analysis and subsequently diluted to twice the maximum desired concentration with medium containing 50 μg/mL gentamicin. An additional series of four dilutions at 10-fold concentration was performed to provide a total of five concentrations of the compound plus the control. Aliquots of 100 μL of these dilutions were taken and added to 96-well plates already containing 100 μL of the medium, resulting in the final required concentrations of the sample. The plates were incubated for 48 h at the same conditions. For adherent cells, the assay was terminated with the addition of cold TCA. Cells were fixed in situ by the slow addition of 50 μL of 50% (w/v) cold ATC (final concentration, 10% TCA) and incubated for 60 min at 4 °C. The supernatant was discarded, and the plates were washed five times with tap water and air dried. A quantity of 100 μL of 0.4% (w/v) sulforhodamine B (SRB) solution in 1% acetic acid was added to each well, and each plate was incubated for 10 min at room temperature. Upon completion of staining, unbound pigment was removed by five washes with 1% acetic acid and the plates were air-dried. The stains were solubilized with 10 mM Trizma base and absorbance was recorded on an automated plate reader at a wavelength of 515 nm. Using the absorbance measurements [time zero (Tz), growth control in the absence of the sample and growth test in the presence of the sample at the five concentration levels (Ti)], the percent growth was calculated for each sample at the concentration levels. The percent growth was calculated as: [(Ti − Tz)/(C − Tz)] × 100 for concentrations for which Ti > Tz, and [(Ti − Tz)/Tz] × 100 for concentrations for which Ti < Tz. Two dose-response parameters were calculated for each compound. The 50% growth inhibition (GI50) was calculated from [(Ti − Tz)/(C − Tz)] × 100 = 50, which is the sample concentration at which the net increase in protein is 50% lower in treated cells (as measured by SRB staining) compared to the net increase in protein seen in control cells and the LC50 (sample concentration at which a 50% reduction in protein measured at the end of treatment compared to the beginning), indicating a net loss of cells; calculated from [(Ti − Tz)/Tz] × 100 = −50. Values were calculated for each of these two parameters if the activity level was reached; however, if the effect was not reached or was exceeded, the value for that parameter was expressed as greater or less than the maximum or minimum of the concentration tested.

[5] = system: SNB-75; test: NCI-60 screen (SRB), CNS cancer; settings: Homo sapiens
[6] = system: DU-145; test: NCI-60 screen (SRB), prostate cancer; settings: Homo sapiens
[7] = system: OVCAR-4; test: NCI-60 screen (SRB), ovarian cancer; settings: Homo sapiens
[8] = system: SK-MEL-2; test: NCI-60 screen (SRB), melanoma; settings: Homo sapiens
[9] = system: MOLT-4; test: NCI-60 screen (SRB), leukemia; settings: Homo sapiens
[10] = system: TK-10; test: NCI-60 screen (SRB), renal cancer; settings: Homo sapiens
[11] = system: breast cancer cell lines; test: NCI-60 screen (SRB), breast cancer panel; format: cell-based; settings: Homo sapiens, single dose 10 μM, read-out: GI (growth inhibition), range over panel
[12] = system: KM12; test: NCI-60 screen (SRB), colon cancer; settings: Homo sapiens
[13] = system: RXF 393; test: NCI-60 screen (SRB), renal cancer
[14] = system: OVCAR-5; test: NCI-60 screen (SRB), ovarian cancer; settings: Homo sapiens
[15] = system: SW-620; test: NCI-60 screen (SRB), colon cancer; settings: Homo sapiens
[16] = system: OVCAR-8; test: NCI-60 screen (SRB), ovarian cancer; settings: Homo sapiens
[17] = system: NCI-H226; test: NCI-60 screen (SRB), non-small cell lung cancer; settings: Homo sapiens
[18] = system: MCF7; test: NCI-60 screen (SRB), breast cancer; settings: Homo sapiens

COc1cc(OC)c(S(N)(=O)=O)cc1C(=O)C=Cc1ccccc1 [Compound 17a, 5-Cinnamoyl-2,4-dimethoxybenzenesulfonamide]
IC50 ([1]; SK-OV-3): 14.4 µM
CC50 ([1]; SK-OV-3, read-out: LC50): 52.9 µM
IC50 ([2]; SK-MEL-28): 12.5 µM
CC50 ([2]; SK-MEL-28, read-out: LC50): 51 µM
IC50 [3]: 3.49 µM
CC50 ([3]; read-out: LC50): 43.8 µM
IC50 ([4]; five-dose screen): 10.7 µM
CC50 ([4]; read-out: LC50): 47.6 µM
IC50 ([5]; SNB-75): 2.08 µM
CC50 ([5]; SNB-75, read-out: LC50): 26.9 µM
IC50 ([6]; DU-145): 1.88 µM
CC50 ([6]; DU-145, read-out: LC50): 38.1 µM
IC50 ([7]; OVCAR-4): 11.8 µM
CC50 ([7]; OVCAR-4, read-out: LC50): 55.9 µM
IC50 ([8]; SK-MEL-2): 12.6 µM
CC50 ([8]; SK-MEL-2, read-out: LC50): 55.9 µM
IC50 ([9]; MOLT-4): 10.1 µM
CC50 ([9]; MOLT-4, read-out: LC50): > 100 µM
IC50 ([10]; TK-10): 12.9 µM
CC50 ([10]; TK-10, read-out: LC50): 51.5 µM
inhibition at 10 µM [11]: 73.5 to 100%
IC50 ([12]; KM12): 3.31 µM
CC50 ([12]; KM12, read-out: LC50): 62.3 µM
IC50 ([13]; Homo sapiens, RXF 393): 1.9 µM
CC50 ([13]; Homo sapiens, RXF 393, read-out: LC50): 30 µM
lethality ([13]; RXF 393, single dose 10 μM): 29.73%
IC50 ([14]; OVCAR-5): 13.2 µM
CC50 ([14]; OVCAR-5, read-out: LC50): 53.7 µM
IC50 ([15]; SW-620): 2.68 µM
CC50 ([15]; SW-620, read-out: LC50): 48.5 µM
IC50 ([16]; OVCAR-8): 11.3 µM
CC50 ([16]; OVCAR-8, read-out: LC50): 51.3 µM
IC50 ([17]; NCI-H226): 10 µM
CC50 ([17]; NCI-H226, read-out: LC50): 69.2 µM
IC50 ([18]; MCF7): 0.97 µM
CC50 ([18]; MCF7, read-out: LC50): 62.5 µM
